Here are results for 30 compounds from PubChem BioAssay (NCI).

Values joined by “and” are separate entries in the source; they are usually repeats but may differ in a detail not shown here. Equal values may be shown once.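 Method: 48-hour compound exposure of cells in 96-well plates, five concentrations, linear interpolation of endpoints. At the GI50, growth is halved. TGI is the concentration that stops growth completely.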

The assay has as its system MDA-MB-468 breast. As to the kind of experiment: NCI anticancer screen, dose series, 48 h.

As for `CO[C@H]1CC(O[C@@H]2/C(C)=C/C[C@@H]3C[C@@H](C[C@]4(CC[C@H](C)[C@@H](C5CCCCC5)O4)O3)OC(=O)[C@@H]3C=C(C)/C(=N/O)[C@H]4OC/C(=C\C=C\[C@@H]2C)[C@]43O)O[C@@H](C)C1O` (some centres undefined), the GI50 is 793 nM and the TGI is 1760 nM.

As to `CC(C)COc1nc2c(c(=O)n(C)c(=O)n2C)n1C`, the GI50 is > 100000 nM and the TGI is > 100000 nM.

Turning to `CN1CCN(Cc2ccc(NC(=O)c3cncc(C#Cc4cnc(N)c5cccnc45)c3)cc2C(F)(F)F)CC1`, the GI50 is 698 nM and the TGI was > 50000 nM.

`CC(=O)c1cc(C(=O)c2ccc3c(c2)Sc2ccccc2N3)n2ccccc12`: the GI50 was 2.56 nM and 3.32 nM.

With `Cc1cc(Nc2cc(N3CCN(C)CC3)nc(/C=C/c3ccccc3)n2)n[nH]1`, the GI50 is 590 nM and the TGI was 2440 nM.

Turning to `COc1ccc([C@@]23Oc4cc(OC)cc(OC)c4[C@]2(O)[C@H](O)[C@H](C(N)=O)[C@H]3c2ccccc2)cc1`, the GI50 was < 10 nM and the TGI came out at 45.8 nM.

With `CN1C(=O)[C@]23SSC1(C)C(=O)N2[C@H]1Nc2ccccc2C1([C@@]12c4ccccc4N[C@@H]1N1C(=O)C4(C)SS[C@]1(C(=O)N4C)[C@H]2O)[C@@H]3O` (some centres undefined), the GI50 was 35.1 nM and 115 nM; the TGI is 103 nM and 322 nM.

Turning to `CCOc1ccn(-c2ccc(F)cc2)c(=O)c1C(=O)Nc1ccc(Oc2ccnc(N)c2Cl)c(F)c1`, the GI50 is 5700 nM and the TGI was found to be 34800 nM.

Regarding `O=[N+]([O-])c1cc([N+](=O)[O-])c(Nn2c3ccccc3c3ccccc32)c([N+](=O)[O-])c1`, the GI50 was 274 nM and the TGI was 782 nM.

For the compound `CC(=O)C1=C(O)C=C2Oc3c(C(=O)/C=C/c4cc(Cl)cc(Cl)c4)c(O)c(C)c(O)c3[C@]2(C)C1=O`, the GI50 was 529 nM and the TGI came out at 1340 nM.

For the compound `CC(=O)[C@H]1CCC/C=C/[C@@H]2C[C@H](O)C[C@H]2[C@H](O)/C=C/C(=O)O1`, the GI50 was 159 nM and the TGI was 687 nM.

`CCNC(=O)Oc1ccc(/C(=C(/C)Cc2ccc(OC)cc2)c2ccc(OCCN(CC)CC)cc2)cc1`: the GI50 is 1630 nM and the TGI amounted to 3460 nM.

For `CCCCCCCC/C=C/CCCCCCCC1=NC(C)(C)CN1CCO`, the GI50 was 1670 nM and the TGI worked out at 3210 nM.

With `c1ccc(CNCCN(CCNCc2ccccn2)Cc2ccc3ccccc3c2)nc1`, the GI50 is 2180 nM and the TGI is 4920 nM.

As for `C#CCN(c1ccc(C(=O)N[C@@H](CCC(=O)N[C@H](CCC(=O)O)C(=O)O)C(=O)O)cc1)C1CCc2cc3nc(CO)[nH]c(=O)c3cc21` (some centres undefined), the GI50 was > 23100 nM and the TGI is > 100000 nM.

Turning to `COc1cc(C(=O)c2cnc(-c3cccc4[nH]ccc34)[nH]2)cc(OC)c1OC`, the GI50 was 64.6 nM and < 10 nM; the TGI is 88700 nM.

With `N#Cc1cnc(Nc2cc(NC[C@H]3CNCCO3)c(C(F)(F)F)cn2)cn1`, the GI50 was 16400 nM and the TGI was 37400 nM.

On to `Cn1cc(-c2cnn3c(N)c(Br)c(C4CCCNC4)nc23)cn1` (centres undefined), for which the GI50 is 11100 nM and the TGI was found to be 44100 nM.

As to `CN1CCN(C(=O)COc2ccc(/C=C3\CC4C5CC=C6CC(Cl)CCC6(C)C5CCC4(C)C3=O)cc2)CC1` (centres undefined), the GI50 is 6030 nM and the TGI is > 100000 nM.

On to `CCN(CC)CCCC(C)N/C(=C1\C(=O)NC(=O)\C1=C(/NC(C)CCCN(CC)CC)c1cccc(OC)c1)c1cccc(OC)c1` (centres undefined), for which the GI50 is 762 nM and the TGI was found to be 1750 nM.

For `CSc1nc2c(c(=O)n1C)CN(C1CCCCC1)C(=O)C(c1ccccc1)N2` (centres undefined), the GI50 was 52200 nM and the TGI is > 100000 nM.

Consider `Cc1cc2c(-c3nc4ccccn4c3N)c(O)c(O)cc2c(O)c1-c1c(C)cc2c(-c3nc4ccccn4c3N)c(O)c(O)cc2c1O`, for which the GI50 is 538 nM and the TGI was determined as 3520 nM.

Turning to `O=S(=O)(Nc1ccc(I)c(Cl)c1)c1ccc(-c2cnc(C3CC3)o2)cc1`, the GI50 was 314 nM and the TGI worked out at 2650 nM.

For `CCN(Cc1cccc(Cl)c1)c1ccc(CO)c(Cl)c1`, the GI50 is 25 nM and the TGI turned out to be 81.7 nM.

Consider `Cc1cc(Nc2nc(N[C@@H](C)c3ncc(F)cn3)ncc2Cl)n[nH]1`, for which the GI50 is 18200 nM and the TGI is 52100 nM.

On to `Clc1ccccc1-c1nnc2c(Cc3ccccc3)nc3ccccc3n12`, for which the GI50 is 5240 nM and the TGI is > 100000 nM.

Regarding `CC[C@@H](C)/C=C(C)/C=C/C(=O)c1c(O)c(-c2ccc(O)cc2)cn(O)c1=O`, the GI50 is 167 nM and the TGI came out at 624 nM.

Turning to `COc1cc(C2c3cc4c(cc3C(OC(=O)C[n+]3ccccc3)C3COC(=O)C23)OCO4)cc(OC)c1OC` (centres undefined), the GI50 is 24.2 nM and the TGI was determined as 77.7 nM.

Turning to `Cc1cc(-c2cc(O)ccc2Cl)cc2nnc(Nc3ccc(OCCN4CCCC4)cc3)nc12`, the GI50 was 583 nM and the TGI came to 2040 nM.

`Cc1cc(C)c(-c2c(N)cc(Br)cc2Br)c(N)c1`: the GI50 was 2240 nM and the TGI amounted to 5760 nM.
